Test results published in the NIST ThermoML archive (doi:10.1021/je200279q).
Numbers after ± are expanded uncertainties.

Tests used:
[1] = 298.15 K; 101.33 kPa; Liquid; Pycnometric method
[2] = refractive index (Na D-line) (dimensionless); conditions: 298.15 K; 101.33 kPa; Liquid; Standard Abbe refractometry

Row | SMILES | mass density [1] [kg/m3] | refractive index [2]
1 | CC(C)CC(C)(C)C [2,2,4-trimethylpentane] | 687.5 ± 0.7 | 1.3892 ± 0.0008
2 | CCCCO [butan-1-ol] | 805.8 ± 0.7 | 1.3973 ± 0.0007
3 | CCCO [propan-1-ol] | 799.5 ± 0.7 | 1.3833 ± 0.0007
